For experiment [1], the target named is T1, Flavobacterium johnsoniae tyrosine ammonia lyase (TAL), SEQ ID NO: 6 (Flavobacterium johnsoniae, UniProt A5FKY3).
T1 sequence (A5FKY3 1-506): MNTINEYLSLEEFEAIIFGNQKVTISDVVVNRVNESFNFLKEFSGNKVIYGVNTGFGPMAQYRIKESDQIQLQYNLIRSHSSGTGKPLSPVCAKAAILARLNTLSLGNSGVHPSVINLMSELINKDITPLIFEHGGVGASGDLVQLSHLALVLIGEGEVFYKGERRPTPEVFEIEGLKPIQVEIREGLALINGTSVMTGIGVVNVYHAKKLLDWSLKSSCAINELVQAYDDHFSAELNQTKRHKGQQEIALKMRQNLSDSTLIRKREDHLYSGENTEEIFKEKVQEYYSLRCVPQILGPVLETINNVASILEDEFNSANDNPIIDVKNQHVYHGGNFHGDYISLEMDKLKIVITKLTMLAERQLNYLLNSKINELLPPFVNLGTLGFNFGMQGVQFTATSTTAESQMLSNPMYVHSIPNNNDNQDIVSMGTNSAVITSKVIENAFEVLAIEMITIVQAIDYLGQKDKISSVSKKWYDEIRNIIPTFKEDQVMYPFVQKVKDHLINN
The experiment is described as follows: SFP characterization assay for kinetic parameters on tyrosine (Michaelis-Menten fit, absorbance at 290 nm). It is filed as biochemical. The note with it: 0-2.48 mM tyrosine, 200 mM sodium phosphate, pH 7.0, A290. An excerpt: (§1) Polynucleotide sequences encoding phenylalanine and tyrosine ammonia lyases from Stanieria cyanosphaera (SEQ ID NO: 2), Chroogloeocystis siderophila (SEQ ID NO: 4), Flavobacterium johnsoniae (SEQ ID NO: 6), and Rhodotorula glutinis (SEQ ID NO: 8) were synthesized as the genes of SEQ ID NOS: 1, 3, 5, and 7, respectively. These synthetic genes were cloned into a pCK110900 vector system (See e.g., U.S. Pat. No. 7,629,157 and US Pat. Appln. Publn. Nos. 2016/0244787, and 2006/0195947, all of which are incorporated by reference), and subsequently expressed in an E. coli strain derived from W3110. In some embodiments, expression vectors lacking antimicrobial resistance markers find use.
(§2) E. coli cultures transformed with plasmids containing TAL variants were plated onto LBagar plates with 1% glucose and in some instances, 30 μg/mL chloramphenicol, and grown overnight at 37° C. A single colony from each culture was transferred to 5 mL of Luria Broth (LB) with 1% glucose and 30 μg/mL chloramphenicol, where appropriate. The cultures were grown for 18 h at 30° C., 250 rpm, and subcultured approximately 1:50 into 250 ml of TB with 30 μg/mL of chloramphenicol. The cultures were grown for approximately 3-4 h at 30° C., 250 rpm, to an OD600 of 0.6-0.8, and induced with 1 mM of IPTG. The cultures were grown for 20 h at 30° C., 250 rpm. Cells were harvested by centrifugation (7000 rpm×10 min, 4° C.), and the supernatants were discarded. The pellets were resuspended in 30 mL of 20 mM sodium phosphate, pH 8.0, with 150 mM NaCl in some instances, and lysed using a single pass through a microfluidizer (Microfluidics), at 110 psi. The lysates were pelleted (10,000× rpm, 30 min, 4° C.), and the supernatants were heated for 1-2 hours at 60-65° C. in a water bath before being pelleted again (10,000× rpm, 1 h, 4° C.). The resulting supernatants were then frozen and lyophilized to generate powders containing the expressed enzymes.
(§3) SFP Characterization Assay for Activity on Tyrosine and Phenylalanine
(§4) To evaluate if the mutations in the TAL variants had altered kinetics, the Michaelis constant (Km) and maximum velocity (Vmax) were determined for each variant. To assay, 20 μl of diluted TAL variants at 1 g/L and 180 μL of 2-fold serially diluted tyrosine (0-2.48 mM tyrosine in 200 mM sodium phosphate, pH 7.0), were added to the wells of a 96-well UV-STAR® plate (Greiner Bio-One). The reactions were mixed briefly, and the activity was determined by tracking the absorbance at 290 nm over time (every 14-37s over 5 min) using a SPECTRAMAX® Plus 384 or a SPECTRAMAX® 190 (Molecular Devices) absorbance microplate reader. The Vmax and Km for each tested TAL variant was determined by fitting the data to a Michaelis-Menten equation using non-linear regression.

Experiment [2] deals with T2, Stanieria cyanosphaera tyrosine ammonia lyase (TAL), wild type, SEQ ID NO: 2 (Stanieria cyanosphaera, UniProt K9XQ92).
T2 sequence (K9XQ92 1-562): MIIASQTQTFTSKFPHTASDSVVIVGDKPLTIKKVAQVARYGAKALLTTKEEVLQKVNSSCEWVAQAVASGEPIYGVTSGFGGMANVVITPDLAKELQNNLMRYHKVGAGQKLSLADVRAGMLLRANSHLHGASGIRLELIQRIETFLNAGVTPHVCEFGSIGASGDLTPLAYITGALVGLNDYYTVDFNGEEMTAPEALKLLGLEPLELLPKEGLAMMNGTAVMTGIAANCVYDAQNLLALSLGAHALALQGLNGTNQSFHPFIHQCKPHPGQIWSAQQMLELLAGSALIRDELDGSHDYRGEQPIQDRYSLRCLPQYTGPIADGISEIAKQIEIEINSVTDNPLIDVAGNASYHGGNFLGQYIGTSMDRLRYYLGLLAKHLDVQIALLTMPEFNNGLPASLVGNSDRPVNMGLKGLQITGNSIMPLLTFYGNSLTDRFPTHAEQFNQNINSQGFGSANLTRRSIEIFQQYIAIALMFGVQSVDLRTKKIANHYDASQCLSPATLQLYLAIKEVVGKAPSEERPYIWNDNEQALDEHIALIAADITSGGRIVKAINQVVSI
Described as above. It is filed as biochemical. The note with it: 0-2.48 mM tyrosine, 200 mM sodium phosphate, pH 7.0, A290.
Description: as §1, §2, §3, §4

As to `N[C@@H](Cc1ccc(O)cc1)C(=O)O` [Tyr, L-tyrosine], the Michaelis constant (Km) in experiment [1] (read-out: Tyr Km) is < 50 µM; in experiment [2] (read-out: Tyr Km), 50 to 150 µM. In addition, the “Tyr Vmax” value was “+ (“+” = 0.5-1)” in experiment [1] (diluted TAL at 1 g/L) and “+++ (“+++” > 5)” in experiment [2] (diluted TAL at 1 g/L).

As a reminder, the Km is the concentration of substrate that gives half-maximal velocity.

Values taken from patent US11473077B2, “Engineered tyrosine ammonia lyase” (Codexis, Inc., priority 2018, dated 2022).
